Values joined by “and” are separate entries in the source; they are usually repeats but may differ in a detail not shown here. Equal values may be shown once.
Legend:
[1] = target: T1, recombinant human Aβ42 peptide (Homo sapiens, UniProt P05067); test: Ion mobility mass spectrometry (IMS MS) anti-Aβ42 oligomer activity; assay type: biochemical; settings: for inhibition of formation of Aβ42 oligomers: after 24 hours in vitro
T1 construct: recombinant human Aβ42 peptide; purchased BioLegend 843801
Protocol: The conditions used for mass spectrometry, using a Waters Synapt G2-S, were as follows: positive polarity in sensitivity mode, capillary=2.5 kV, nebulizer=2 mbar, source temperature=80° C., desolvation temperature=60° C., sample cone setting=35 V, source offset setting=60 V, and mass range=500 to 4000 m/z. These conditions were maintained throughout the study to ensure consistency of the data and to avoid influencing the detection of oligomers due to preferential ionization conditions.
Samples were directly infused into the mass spectrometer at a flow rate of 10 μL/min using a Protea PM-1000 Syringe Pump and Hamilton 1 mL Syringe. The data acquisition of the amyloid peptide was performed using a Waters Synapt G2-S quadrupole time of flight mass spectrometer (Q-TOF MS) with traveling wave ion mobility (Waters Corp., Milford, MA). The data were acquired using the systems sensitivity mode to allow for the detection of the less abundant oligomers. Samples were infused at room temperature. The IMS MS studies were conducted at Protea, Inc. (Morgantown, WV).
1 mg of recombinant human Aβ42 peptide from BioLegend (99% purity, cat #843801) was reconstituted in 200 μL of Fisher Optima LC/MS grade water (cat #W6-1) and vortexed vigorously for 2 minutes to solubilize the peptide creating a 5 mg/mL solution. Samples were then diluted to a final concentration of 22 pmol/μL prior to incubation. The sample mixtures were then incubated at room temperature for 0, 4 and 24 hours. After the acquisition of incubated samples was completed, the raw data were analyzed using the Waters MassLynx v2.4 suite with DriftScover v2.7 to visualize drift times for the peptide.
Aβ42 species characterization using IMS MS was performed by direct infusion at 22 pmol/μL in water. The peptide was prepared in water to maintain the native state conformation of the peptide and ion mobility data acquisition was performed to detect and characterize the conformational changes of the native state monomer and any oligomers that may have formed during the incubation.
The data acquisition for Aβ42 peptide was performed using a Waters Synapt G2-S quadrupole time of flight mass spectrometer (Q-TOF MS) with traveling wave ion mobility (Waters Corp., Milford, MA). The data were acquired using the systems sensitivity mode to allow for the detection of the less abundant oligomers. Samples were infused at room temperature as above.
1 mg of 3-SPA was reconstituted in 1 mL of Fisher Optima LC/MS grade water (cat #W6-1) and vortexed vigorously for 2 minutes until completely dissolved. The sample was then diluted to create 220 pmol/μL, and […] solutions to perform a 100-fold, and 1,000-fold molar excess for the binding experiments with Aβ42 peptide. […]

[2] = Brain penetration of oral 3-SPA in male SD rats (brain, CSF, plasma); assay type: in vivo, Sprague-Dawley rats; settings: oral 30 mg/kg
Protocol: A separate group of animals was dosed orally at 30 mg/kg and terminal brain, CSF and plasma samples were collected at 1, 2, 6, and 24 hr (3 animals for each time point) for bioanalyses of 3-SPA in brain and CSF, and to estimate brain penetration relative to plasma concentrations. The in-life study was performed at Agilux Laboratories (Worcester, MA) following quality standards in line with Good Laboratory Practice. Bioanalyses of rat plasma, CSF and brain was preformed using LC-MS/MS at Nextcea. Prior to processing rat brains for bioanalysis, the brains were perfused to remove pooled blood. Pharmacokinetic data analyses were conducted using Winnonlin Professional v5.0.1 (Pharsight, Mountain View, CA).
The plasma concentration of a single dose of 3-SPA, dissolved in saline as a clear solution, administered orally and intravenously to rats at a dose level of 30 mg/kg and 10 mg/kg, respectively, are shown in FIG. 9. Brain, CSF and corresponding plasma levels after a single oral dose of dose of 30 mg/kg of 3-SPA at 1, 2, 6, and 24 hr are shown in FIG. 10. Mean PK curves were used for calculation of pharmacokinetic parameters.

T1 sequence (P05067 672-713 limits assumed): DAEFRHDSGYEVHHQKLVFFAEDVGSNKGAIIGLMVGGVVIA

Aβ42 oligomer species detected (not inhibited) ([1]; 4 hr incubation, Aβ42:compound 1:1000)	Aβ42 oligomer species detected (not inhibited) ([1]; 24 hours incubation, 1,000-fold excess of compound)	Brain/Plasma (AUC %) [2]	SMILES	inhibition of formation of Aβ42 oligomers [1]
dimers, trimers and pentamers	Only pentamers were detected	25% and 25.3%	O=C(O)CCS(=O)(=O)O [Compound 3-SPA, 3-sulfopropanoic acid]	Near complete prevention of formation of Aβ42 oligomers except for pentamers
			NCCCS(=O)(=O)O [Tramiprosate, 3-amino-1-propanesulfonic acid, reference compound]	complete inhibition

Source: patent US20260034088A1, “SULFOPROPANOIC ACID DERIVATIVES FOR TREATING NEURODEGENERATIVE DISORDERS” (Alzheon, Inc., priority 2018, published 2026)
